Laboratory results: patent US20180006232A1, “HETEROCYCLIC COMPOUND, LIGHT-EMITTING ELEMENT, LIGHT-EMITTING DEVICE, ELECTRONIC APPLIANCE, AND LIGHTING DEVICE” (Semiconductor Energy Laboratory Co., Ltd., priority 2014, published 2018)
Read-outs that look alike come from different tables or passages of the source.

Experiment: Examination of solubility in organic solvents
Type: physicochemical
Conditions: for solubility: organic solvent or mixture, thermodynamic from solid
Excerpt: The heterocyclic compound which is one embodiment of the present invention and used in this example was 2mFBPDBq (sample 1). Note that 2mFBPDBq was synthesized by the synthesis method described in Example 1. In addition, the compound used for comparison was 2mDBTBPDBq-II (comparison sample 2). The purity of each compound was 99.9%. The structural formulae of the compounds are shown below.
The solvents used in this example were the four kinds of solvents: toluene, chloroform, ethyl acetate, and acetone.
A method of examining the solubility of the compound of each sample is described. First, 10 mg of the compound was put into a small bottle and to this was added 1 mL of a solvent. Then, whether the compound was dissolved at room temperature or not was checked. When the compound was not dissolved at room temperature, ultrasonic wave irradiation and then heating using a dryer were performed, so that whether the compound was dissolved was checked.
When the compound was not dissolved after heating, the volume of the solvent was increased to 10 mL, so that whether the compound was dissolved at room temperature was checked. When the compound was not dissolved at room temperature, ultrasonic wave irradiation and then heating using a dryer were performed, so that whether the compound was dissolved was checked.

Structure (SMILES)	solubility [µg/mL]	Solubility in Acetone (acetone, 10 mg compound in 1 mL, then 10 mL, room temperature, then ultrasonic wave irradiation and heating)	Solubility in Chloroform (chloroform, 10 mg compound in 1 mL, then 10 mL, room temperature, then ultrasonic wave irradiation and heating)	Solubility in Ethyl acetate (ethyl acetate, 10 mg compound in 1 mL, then 10 mL, room temperature, then ultrasonic wave irradiation and heating)	solubility (toluene, 10 mg compound in 1 mL, then 10 mL, room temperature, then ultrasonic wave irradiation and heating, read-out: Solubility in Toluene) [µg/mL]	Solubility compared with comparison compound 2mDBTBPDBq-II (organic solvents (toluene, chloroform, ethyl acetate, acetone), summary in words)
c1cc(-c2cccc(-c3cccc4c3sc3ccccc34)c2)cc(-c2cnc3c4ccccc4c4ccccc4c3n2)c1 [2mDBTBPDBq-II, 2-[3′-(dibenzothiophen-4-yl)biphenyl-3-yl]dibenzo[f,h]quinoxaline, reference compound]	< 1000					
CC1(C)c2ccccc2-c2ccc(-c3cccc(-c4cccc(-c5cnc6c7ccccc7c7ccccc7c6n5)c4)c3)cc21 [2mFBPDBq, 2-{3-[3-(9,9-dimethylfluoren-2-yl)phenyl]phenyl}dibenzo[f,h]quinoxaline]		□ (dissolved at 10 mg/10 mL when heated)	◯ (dissolved at 10 mg/mL when heated)	□ (dissolved at 10 mg/10 mL when heated)	> 10000	higher solubility
